The subject of this assay is Rhizoctonia solani. Kind of assay: Soybean seed treatment test in soil contaminated by Rhizoctonia solani (disease control efficacy). Format: in vivo, Rhizoctonia solani on soybean (variety: Natto shoryu). The note with it: seed treatment of soybean; carboxamide compound alone 0.2 g/100 kg of seeds; cultivated 20 days in contaminated soil; versus non-treated plot. As to the method: A cyclohexanone solution (100 microL) containing prescribed amount (weight) of a test compound was applied on seeds of soybean (variety: Natto shoryu) (10 g) by using a rotary apparatus for seed treatment (Seed dresser, manufactured by Hans-Ulrich Hege GmbH).
One day after the application, plastic pot was filled with soil contaminated by Rhizoctonia solani, and the seeds treated with the test compounds were seeded in the soil and cultivated in a glass-greenhouse for 20 days (hereinafter referred to as “treated plot”).
Thereafter, the presence of disease caused by Rhizoctonia solani in the young plants which germinated from each seed was observed and disease severity was calculated according to the following calculation formula (1).
On the other hand, seeds of soybean which were not treated as above were cultivated in the same way as above (hereinafter referred to as “non-treated plot”) and the disease severity in the “non-treated plot” was calculated in the same way as the above “treated plot”. On the basis of the above disease severity in “treated plot” and “non-treated plot”, efficacy in “treated plot” was evaluated according to the following calculation formula (2). […]

For `CC1CC(C)(C)c2cccc(NC(=O)c3cn(C)nc3C(F)F)c21` (centres unmarked) [carboxamide compound (1)], the “efficacy (%)” value is 47.4%. Turning to `Cc1nn(C)c(C)c1C(=O)Nc1cccc2c1C(C)CC2(C)C` (centres unmarked) [carboxamide compound (5)], the “efficacy (%)” value was determined as 15.8%.

Values taken from patent publication US8940781B2, “Pesticidal composition and its use” (Sumitomo Chemical Company, Limited, priority 2010, dated 2015).
